Data: patent US20080014162A1, “Method to treat skin in need of a calmative using at least one C-Glycoside derivative” (L'OREAL, priority 2006, published 2008)

Legend:
[1] = tested on: interleukin-8 secreted by normal human epidermal keratinocytes (NHEK); test: Assay of IL8 without stimulation in normal human epidermal keratinocytes; format: cell-based; details: concentration 2%
Description: Dermatol., 102: 915-922 (1994)].

[2] = tested on: interleukin-8 secreted by normal human epidermal keratinocytes (NHEK) after stimulation with retinol; test: Assay of IL8 + stimulation with retinol in normal human epidermal keratinocytes (anti-irritant effect); details: for % blank (+retinol): IL8 as % of blank (+retinol); for IL8: 24 hours at 37° C.
Description: This test allows evaluation of the anti-irritant potential of various molecules, on a human keratinocyte (NHEK) cell line. In this test, an irritant situation is mimicked by exacerbating the production of IL-8 by the NHEKs by addition of retinol to the culture medium, Il-8 being involved in the initiation of keratinocyte irritation. Next, the anti-irritant effect of a C-glycoside compound is measured by means of its inhibitory action with respect to this exacerbated production.
Normal human epidermal keratinocytes are incubated in the presence of 10^−6 M retinol for 24 hours at 37° C. In response to the retinol, the production of the chemotactic agent interleukine 8 (IL-8) is measured via enzymatic assay using an assay kit (Elisa D8050) sold by the company R&D. The absorbance values are measured with a microplate reader (MRX/Dynatech) according to the procedures supplied with the assay kit.
A control test is also performed with dexamethasone, which is a reference calmative.
The results are expressed as a percentage of the control values after subtracting the background noise and as a percentage of inhibition of these values obtained in the presence of the compounds.

[3] = NHEK + 10^−6 M retinol, 24 hours, concentration 2%

Compound: CC(O)C[C@@H]1OC[C@@H](O)[C@H](O)[C@H]1O (stereo partly drawn) [C-β-D-xylopyranoside-2-hydroxypropane]
- % blank ([1]; IL8 as % of blank): 53%
- % viability [1]: 97%
- IL8 [1]: 145.2 pg/mL
- % blank (+retinol) [2, 3]: 60%
- IL8 ([2]; NHEK + 10^−6 M retinol, concentration 2%): 124.4 pg/mL
- % viability [2, 3]: 104%
- effect on the irritant reaction of retinol ([2]; conclusion in words from the IL8 assay in NHEK): reduces the irritant reaction of retinol

Compound: C[C@@H]1C[C@H]2[C@@H]3CCC4=CC(=O)C=C[C@]4(C)[C@@]3(F)[C@@H](O)C[C@]2(C)[C@@]1(O)C(=O)CO [Dexamethasone, reference compound]
- % blank (+retinol) ([2]; NHEK + 10^−6 M retinol, 24 hours, concentration 10^−7M): 57%
- IL8 ([2]; NHEK + 10^−6 M retinol, concentration 10^−7M): 117.7 pg/mL
